Values joined by “and” are separate entries in the source; they are usually repeats but may differ in a detail not shown here. Equal entries are not always repeated.
Tests used:
[1] = target: T1, human Topo II (Homo sapiens, UniProt P11388); assay: Topoisomerase II inhibitory activity (TopoGEN drug screening kit); format: biochemical; settings: three independent experiments
T1 construct: purchased TopoGEN, Inc., Columbus
Experimental: The activity of topoisomerase II was determined according to the reported procedure described by Patra et al.[42]. […]
4.2.3. Measurement of topoisomerase II activity
Compounds (8a, 8b, 9a, 9c, 9d, 12a, and 12b) were further evaluated to assess their Topo II inhibitory activities. In this test, Topo II drug screening kit (TopoGEN, Inc., Columbus) was utilized to determine the Topo II activity. […] A typical enzyme […]
reaction contained a mixture of human Topo II (2 µL), substrate super coiled pHot1 DNA (0.25 µg), 50 µg/mL test compound (2 µL), and assay buffer (4 µL). The reaction started upon incubation of the mixture in 37 °C for 30 min. The reaction was terminated by addition of 10% sodium dodecylsulphate (2 µL) and proteinase K (50 µg/mL) at 37 °C for 15 min. followed by incubation for 15 min at 37 °C.
Then, the DNA was run on 1% agarose gel in BioRad gel electrophoresis system for 1–2 h followed by staining with GelRedTM stain for 2 h and destained for 15 min with TAE buffer. The gel was imaged Via BioRad’s Gel DocTMEZ system. Both supercoiled and linear strands DNA were incorporated in the gel as markers for DNA-Topo II intercalators. The results of IC50 values were calculated using the GraphPad Prism version 5.0. Each reaction was performed in duplicate, and at least three independent determinations of each IC50 were made.

[2] = system: Calf thymus DNA; assay: DNA intercalation assay (DNA/methyl green colorimetric assay); format: binding; settings: three independent experiments
Experimental: (§1) The data represented the mean of three independent experiments in triplicate and were expressed as means ± SD. […]
4.2.2. DNA intercalation assay (DNA/methyl green colorimetric assay)
Affinity of some compounds for DNA-binding was examined in vitro using DNA/methyl green assay using doxorubicin as a positive control. In this test, a mixture of methyl green (20 mg) and Calf thymus DNA (10 mg) (Sigma– Aldrich) were suspended in 0.05 M TrisHCl buffer (100 mL, pH 7.5) containing 7.5 mM MgSO4. This mixture was stirred continuously for 24 h at 37 °C. Then, ethanolic solution of the test compounds was pitted into the wells of a 96-well microtiter tray at a concentration of 10, 100 and 1000 µM. The excess solvent was removed from each well under vacuum, with subsequent addition of 200 µL of the DNA/methyl green solution. The test samples were incubated for 24 h in dark at ambient temperature. After that, absorbance of each sample was determined at 642.5–645 nm. In this test, the methyl green dye reversibly binds to DNA to form persistent colored complex of DNA/methyl green. This color still stables at neutral pH. When the DNA intercalators were added, the methyl green was displaced from DNA with addition of H2O molecule to the dye resulting in formation of the colorless carbinol leading to a decrease in spectrophotometric absorbance. ΔA value (the difference between DNA/methyl green complex and free cabinol) provides the simplest means for detecting the DNA-binding affinity and relative binding strength. IC50′s were determined by linear regression of data plotted on a semi -log scale and the data were compared with doxorubicin as standard DNA intercalator . […]

[3] = Hematological and biochemical blood assays in SEC-bearing mice; format: in vivo, Swiss albino mice; settings: 5 mg/kg BW, Mean ± SEM (n = 7), 5 mg/kg
Experimental: At the end of the experiment, animals from different groups were sacrificed, and blood samples were collected for hematological parameters, including Hb, RBC’s, and WBC’s levels, and serum for determination of liver enzymes ALT, AST levels, and proteins.
(§2) The experimental animals were randomly divided into four groups. Group 1 served as the normal saline control (5 ml/kg B.Wt., I.P.). Group 2 served as the SEC control (1 × 10^6 cells/mouse). Group 3 served as the compound-treated group (5 mg/kg B.Wt., I.P.). […] Bodyweight and survival were recorded daily until the 24th day in both treated and control groups. At the end of the experiment, the blood of each group was collected under light anaesthesia to the estimate of hematological and biochemical assays. The anaesthetised animals were then sacrificed for evaluation of the antitumor activity and histopathological examination.
At the end of the experiment, animals from different groups were sacrificed, and blood samples were collected for hematological parameters including, Hb, RBC’s, and WBC’s levels, and serum for determination of liver enzymes ALT, AST levels, and proteins. Complete blood count (CBC) was investigated using the Abbott CELL-DYN®1800 automated haematology analyser (USA) using ready-made kits (Abbott Laboratories, Abbott Park, IL, USA). Activities of aspartate aminotransferase (AST) and alanine aminotransferase (ALT) were evaluated using commercial kits (ELITech clinical systems, France). Serum albumin level was determined by kit purchased from STANBIO Company (USA). Protein content was determined by colorimetric method using ready-made kits produced by Instrumentation Laboratory SpA, Inova diagnostics, Milano, Italy.

[4] = Histopathological examination of liver tissues of SEC-bearing mice; format: in vivo, Swiss albino mice; settings: H&E stain, ×200
Experimental: as §2
Specimens of liver-sacrificed mice were fixed in 10% saline formalin. The fixed liver specimens were dehydrated in ascending series of ethyl alcohol and embedded in paraffin. Sections at […] thicknesses were stained with haematoxylin and eosin and examined under the light microscope.

[5] = system: HepG-2 cells (hepatocellular carcinoma); assay: MTT anti-proliferative assay, HepG-2; format: cell-based, human
Experimental: Anti-proliferative activities of the target compounds were assessed via the standard MTT method[38–40] against three cancer cell lines, namely, hepatocellular carcinoma (HepG-2), colorectal carcinoma (HCT-116), and human breast adenocarcinoma (MCF-7).
Anti-proliferative activity of the synthesised compounds was estimated using the MTT assay protocol[8]^,[38–40] as shown in Supplementary data.
4.2.1. In vitro anti-proliferative activity against MCF-7, HepG-2 and HCT-116 The cells were cultured in RPMI-1640 medium supplemented with 10% fetal bovine serum (FBS), penicillin (100 unit /mL) and streptomycin sulphate (100µg/mL) at 37 °C in a 5% CO2 incubator.
Then, cells were dropped in 96-well plates at a density of 3-8 × 10^3 cells/well and incubated for two days in a 5% CO2 incubator at 37 °C. Then, the cells were treated with the synthesized compounds and the cell cultures were continued incubated for 24 h. However, Different concentrations of the compound under test (0.0, 5.0, 12.5, 25.0 and 50 mg/ml) were added to the cell monolayer. Then, (3-[4,5-dimethylthiazol-2-yl]- 2,5-diphenyltetrazolium bromide) MTT solution (20 µl, 5mg/mL) was added to each well and incubated for additional 4 h. The formed purple crystals of MTT-formazan were dissolved in 100 µl DMSO each well; the absorbance of each well was measured at 570 nm using a plate reader (EXL 800, USA). All of the compounds were tested three times. The relative cell viability in percentage was calculated.
as §1

T1 sequence (P11388 whole entry): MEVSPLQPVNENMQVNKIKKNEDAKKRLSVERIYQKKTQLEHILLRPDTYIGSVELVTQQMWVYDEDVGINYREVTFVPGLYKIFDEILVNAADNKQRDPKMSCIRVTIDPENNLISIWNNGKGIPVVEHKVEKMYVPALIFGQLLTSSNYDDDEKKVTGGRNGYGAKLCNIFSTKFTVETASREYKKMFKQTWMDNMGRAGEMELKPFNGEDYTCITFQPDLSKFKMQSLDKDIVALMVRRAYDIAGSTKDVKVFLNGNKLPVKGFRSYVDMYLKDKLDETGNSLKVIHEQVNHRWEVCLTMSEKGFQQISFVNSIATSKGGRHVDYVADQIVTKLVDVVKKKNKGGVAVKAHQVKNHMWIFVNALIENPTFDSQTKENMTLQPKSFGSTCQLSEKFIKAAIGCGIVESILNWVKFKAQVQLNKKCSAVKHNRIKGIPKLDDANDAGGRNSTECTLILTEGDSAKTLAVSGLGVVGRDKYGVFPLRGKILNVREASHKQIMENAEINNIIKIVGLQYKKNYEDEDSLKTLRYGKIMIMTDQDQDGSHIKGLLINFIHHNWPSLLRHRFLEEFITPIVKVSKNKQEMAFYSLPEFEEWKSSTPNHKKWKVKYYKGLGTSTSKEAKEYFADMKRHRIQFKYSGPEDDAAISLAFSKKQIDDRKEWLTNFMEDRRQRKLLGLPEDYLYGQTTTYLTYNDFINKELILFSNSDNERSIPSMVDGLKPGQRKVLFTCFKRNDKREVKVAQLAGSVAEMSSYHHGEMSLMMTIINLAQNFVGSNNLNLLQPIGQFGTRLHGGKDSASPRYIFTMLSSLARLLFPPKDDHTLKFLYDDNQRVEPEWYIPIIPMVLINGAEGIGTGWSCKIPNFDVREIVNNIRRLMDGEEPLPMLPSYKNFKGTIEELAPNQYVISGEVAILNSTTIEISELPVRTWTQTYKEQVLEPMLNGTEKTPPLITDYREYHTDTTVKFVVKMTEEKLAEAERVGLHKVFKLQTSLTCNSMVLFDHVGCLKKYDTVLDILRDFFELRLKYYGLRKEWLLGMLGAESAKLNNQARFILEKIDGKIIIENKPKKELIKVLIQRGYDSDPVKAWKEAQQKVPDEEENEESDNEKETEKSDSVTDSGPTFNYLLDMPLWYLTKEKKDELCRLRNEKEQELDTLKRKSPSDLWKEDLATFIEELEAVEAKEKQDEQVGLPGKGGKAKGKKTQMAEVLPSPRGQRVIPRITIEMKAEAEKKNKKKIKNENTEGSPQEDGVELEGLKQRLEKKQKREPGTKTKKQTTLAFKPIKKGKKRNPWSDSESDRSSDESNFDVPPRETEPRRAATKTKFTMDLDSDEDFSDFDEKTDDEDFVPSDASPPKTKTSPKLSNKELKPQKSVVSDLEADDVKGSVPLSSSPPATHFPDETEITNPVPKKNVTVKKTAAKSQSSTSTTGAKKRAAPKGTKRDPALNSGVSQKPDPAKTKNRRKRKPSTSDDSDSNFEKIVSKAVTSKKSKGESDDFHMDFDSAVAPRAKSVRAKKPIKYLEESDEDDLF

## CCCc1nnc2c3ccccc3c(NN=Cc3ccc([N+](=O)[O-])cc3)nn12 [Compound 9d, 6-[2–(4-Nitrobenzylidene)hydrazineyl]-3-propyl-[1,2, 4]triazolo[3,4-a]phthalazine]
[1]
  IC50: 7.02 ± 0.54 µM
[2]
  IC50: 26.2 ± 1.14 µM
[3]
  ALT: 42.9 U/L
  AST: 55.6 U/L
  Albumin: 6.25 g/dL
  Hb: 8.2 g/dL
  RBCs count: 5.37 ×10^6/µL and 5.37 ± 0.37 ×10^6/µL
  Total Protein: 8.04 g/dL
  WBCs count: 3720 µL⁻¹
[4]
  Histopathological finding in liver tissue: hepatic cells are near normal and show tissue improvement as compared with a little hydropic degeneration
[5]; Homo sapiens, HepG2, MTT, mean ± SD of three separate experiments, read-out: In vitro Cytotoxicity IC50 HepG-2
  IC50: 5.08 ± 0.17 µM
[5]; ratio of IC50 values vs doxorubicin
  times more active than doxorubicin, HepG2: 1.63 times

— publication PMC8667898, “Topo II inhibition and DNA intercalation by new phthalazine-based derivatives as potent anticancer agents: design, synthesis, anti-proliferative, docking, and in vivo studies” (Journal of Enzyme Inhibition and Medicinal Chemistry, 2021)
